Counter-ions that a name gives are not always drawn.
Assays:
[1] = Powder flowability: mass flow rate through an orifice (Pharmatest PTG-S4); type: physicochemical; conditions: orifice inner diameter 15 mm; 100 g powder
Protocol: The powder flowability was determined with a Pharmatest PTG-S4 automated powder characterization instrument (Pharma Test Apparatebau AG, Hainburg, Germany). This system measures the flow behavior of granules and powders in compliance with the current EP <2.9.36/17> and USP <1174> pharmacopoeia as well as with the international ISO 4324 standards.
Mass flow rate (g/min) was determined via the method of flow through an orifice. Flow rate is interpreted as the time needed for a specified amount of powder (100 g) to flow through an orifice with different diameters. A free-flowing powder should be able to flow through the whole set of diameters 5, 7, 9, 10, and 15 mm. The plot of flow rate vs. orifice diameter is referred as flow curve. Three parallel measurements were performed to determine the flow rate.
Flowability of the two mixtures was then tested as described in Example 1.

[2] = Vitamin B12 content uniformity (RSD from HPLC assays); type: physicochemical; conditions: tablets with 549.9 mg calcium phosphate anhydrous and 0.0078 mg vitamin B12
Protocol: “Uniformity of content” ensures that a consistent dose of an active pharmaceutical ingredient (e.g. of vitamin B12) is maintained in each portion of a composition, even if the composition is subdivided into a large number of very small portions. By way of example, when controlling the quality of e.g. capsules or tablets, uniformity of content is determined. To do so, multiple e.g. capsules or tablets are selected at random and a suitable analytical method is applied to assay the individual content of the active pharmaceutical ingredient in each capsule or tablet. The relative standard deviation (RSD) can then be calculated. The lower the RSD, the better the uniformity of content. An RSD of more than […] is clearly unacceptable. The term “uniformity of vitamin B12 content” is used when multiple solid pharmaceutical dosage forms are selected at random and a suitable analytical method is applied to assay the individual content of vitamin B12 in each solid pharmaceutical dosage form.
Tablets were compressed with a Korsch XL 100 rotary tableting machine (Korsch A G, Berlin, Germany) using an oblong punch of 22×9 mm and compression force of 20 kN.
Vitamin B12 content uniformity was then evaluated via the standard deviation RSD (%) calculated from 10 individual assay determinations (HPLC analysis conducted by Eurofins®, Germany).

| Compound | Flow rate, measured with orifice having the indicated inner diameter [1] | vitamin B12 content uniformity rating [2] |
| --- | --- | --- |
| CN(C)C(=N)N=C(N)N [metformin HCl] | very low | – |
| cyanocobalamin [vitamin B12 crystals] | – | extremely poor |

Source: patent publication US20220304952A1, “COMPOSITION COMPRISING METFORMIN HCI, VITAMIN B12 AND AT LEAST ONE FLOW ADDITIVE” (DSM IP ASSETS B.V., priority 2019, published 2022)
